Assay results reported in patent publication EP0369744B1, “Xanthine derivatives, process for their preparation and pharmaceutical compositions” (SMITHKLINE BEECHAM PHARMA GmbH, priority 1988, dated 1990).

Test system: gerbils
Experiment: Delayed neuronal death in gerbils after transient forebrain ischaemia
Format: in vivo
Experimental: Ischaemia was produced in adult male gerbils by occlusion of both common carotid arteries for 3 minutes under halothane/nitrous oxide anaesthesia. During surgery the animals were placed upon a warming blanket. The ischaemia led to neuronal degeneration and to disturbed brain function.
Brains were removed 2 weeks later and 12 µm thick coronal slices were examined light microscopically for neuronal degeneration.
Three groups of animals were used: • 1. sham ligated controls • 2. solvent-treated ligated controls • 3. compound-treated ligated animals The compound was administered 1 hour before the ligation period.
Means ± SEM (n) of histopathological score [HPS] which reflects the degree of neuronal damage in the hippocampal CA1 field: 0 = no damaged neurons 1 = mild necrosis 2 = moderate necrosis 3 = severe necrosis 4 = complete necrosis

O=c1c2[nH]cnc2n(CC2CC2)c(=O)n1CC1CC1 [Example 1, 1,3-Di-cyclopropylmethyl xanthine]
ischaemia induced neuronal degeneration (conclusion): significantly prevented ischaemia induced neuronal degeneration
